Data on 18 compounds can be found in patent US8680159B2, “Bradykinin 1 receptor modulating compounds” (Gruenenthal GmbH, priority 2010, dated 2014).

The structures appear in SMILES notation.

For this test, the target named is T1, B1R receptor of the rat (CHO K1 cells stably transfected with the B1R gene of the rat) (Rattus norvegicus, UniProt P97583).
T1 construct: expressed in transfected cells; host or cells: CHO K1 cells (Chinese hamster ovary), stably transfected
T1 sequence (P97583 1-337): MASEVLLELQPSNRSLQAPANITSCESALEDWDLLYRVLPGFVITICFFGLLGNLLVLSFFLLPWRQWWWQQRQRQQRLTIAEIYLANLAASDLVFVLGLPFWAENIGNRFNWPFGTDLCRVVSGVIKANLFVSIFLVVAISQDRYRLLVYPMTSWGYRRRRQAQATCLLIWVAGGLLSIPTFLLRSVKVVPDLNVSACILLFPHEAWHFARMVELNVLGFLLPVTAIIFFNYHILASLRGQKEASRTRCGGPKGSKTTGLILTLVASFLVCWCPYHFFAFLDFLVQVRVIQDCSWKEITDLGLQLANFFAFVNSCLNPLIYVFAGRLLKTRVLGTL
Description: Functional study on the bradykinin receptor 1 (B1R), Ca2+ fluorescence (Fluo-4) FLIPR/Novostar assay, rB1R cells. As to conditions: CHO-K1, 10 μM, read-out: % Inhibition (r-B1R) at 10 μM. It counts as cell-based. The procedure:
The agonistic or antagonistic action of substances can be quantified on the bradykinin receptor 1 (B1R) of the species human and rat using ectopically expressing cell lines (CHO K1 cells) and with the aid of a Ca^2+-sensitive dye (Fluo-4) using a fluorescent imaging plate reader (FLIPR). The indication in % activation is based on the Ca^2+ signal after addition of Lys-Des-Arg^9-bradykinin (0.5 nM) or Des-Arg^9-bradykinin (100 nM). Antagonists lead to suppression of the Ca^2+ influx after the addition of the agonist. % Inhibition compared with the maximum achievable inhibition is indicated.
The agonistic or antagonistic action of substances can be determined on the bradykinin receptor 1 (B1R) of the species human and rat using the following assay. According to this assay, the increase in intracellular Ca^2+ following administration of a B1R agonist is quantified with the aid of a Ca^2+-sensitive dye (Fluo-4 type, Molecular Probes Europe BV, Leiden, Netherlands) using a Fluorescent Imaging Plate Reader (FLIPR, Molecular Devices, Sunnyvale, USA) and/or using a Novostar (BMG Labtech GmbH, Offenburg, Germany).
Chinese hamster ovary cells (CHO K1 cells) which have been stably transfected with the human B1R gene (hB1R cells) or with the B1R gene of the rat (rB1R cells) are used. For functional studies, the cells are plated out on black 96-well plates having a clear base (BD Biosciences, Heidelberg, Germany or Greiner, Frickenhausen, Germany) in a density of 20,000-35,000 cells/well. The cells are left overnight at 37° C. and with 5% CO2 in culture medium (hB1R cells: Nutrient Mixture Ham's F12, Gibco Invitrogen GmbH, Karlsruhe, Germany or DMEM, Sigma-Aldrich, Taufkirchen, Germany; rB1R cells: D-MEM/F12, Gibco Invitrogen GmbH, Karlsruhe, Germany), with 10 vol. % FBS (fetal bovine serum, Gibco Invitrogen GmbH, Karlsruhe, Germany or PAN Biotech GmbH, Aidenbach, Germany). On the following day, the cells are loaded for 60 minutes at 37° C. with 2.13 μM Fluo-4 (Molecular Probes Europe BV, Leiden, Netherlands) in HBSS buffer (Hank's buffered saline solution, Gibco Invitrogen GmbH, Karlsruhe, Germany) […] (Sigma-Aldrich, Taufkirchen, Germany) and 10 mM HEPES (Sigma-Aldrich, Taufkirchen, Germany). The plates are then washed twice with HBSS buffer, and HBSS buffer additionally containing 0.1% BSA (bovine serum albumin; Sigma-Aldrich, Taufkirchen, Germany), 5.6 mM glucose and 0.05% gelatin (Merck KGaA, Darmstadt, Germany) is added to the plates. After incubation for a further 20 minutes at room temperature, the plates are inserted into the FLIPR or Novostar for Ca^2+ measurement. Alternatively, washing is carried out with buffer A (15 mM HEPES, 80 mM NaCl, 5 mM KCl, 1.2 mM CaCl2, 0.7 mM MgSO4, 2 g/l glucose, 2.5 mM probenecid) followed by loading with buffer A with added 2.5 μM Fluo-4 and 0.025% Pluronic F127 (Sigma-Aldrich, Taufkirchen, Germany). The cells are then washed twice with buffer A and incubated for 30 minutes at room temperature with buffer A additionally containing 0.05% BSA and 0.05% gelatin and are then inserted into the FLIPR or Novostar for Ca^2+ measurement. The Ca^2+-dependent fluorescence is measured before and after the addition of substances (λex=488 nm, λem=540 nm). Quantification is carried out by measuring the highest fluorescence intensity (FC, fluorescence counts) over time.
The FLIPR protocol consists of 2 substance additions, which are pipetted in the FLIPR. In the case of measurements using the Novostar, only the second substance addition is pipetted in the device. Both devices measure the fluorescence intensity over time. Test substances (10 μM) are first pipetted onto the cells and the intracellular Ca^2+ increase is compared with the control (hB1R: Lys-Des-Arg^9-bradykinin>=50 nM; rB1R: Des-Arg^9-bradykinin>=1 μM). This gives the % activation, based on the Ca^2+ signal after addition of Lys-Des-Arg^9-bradykinin (>=50 nM) or Des-Arg^9-bradykinin (>=1 μM). […]
On to `CN(C(=O)c1ccc2c(c1)C(N(C)C(=O)Nc1cccc(Cl)c1Cl)CC2)C1CCN(c2ccncc2)CC1` (stereo not drawn) [CC_H-220, 3-[[(2,3-Dichloro-phenyl)-carbamoyl]-methyl-amino]-N-methyl-N-(1-pyridin-4-yl-piperidin-4-yl)-2,3-dihydro-1H-indene-5-carboxylic acid amide], for which the inhibition (commonly the drop in the measured response relative to a control, in per cent) at 10 µM is 107%.

As for `CN(C(=O)c1ccc2c(c1)C(N(C)C(=O)Nc1cc(Cl)ccc1Cl)CC2)C1CCN(c2ccncc2)CC1` (stereo not drawn) [CC_H-221, 3-[[(2,5-Dichloro-phenyl)-carbamoyl]-methyl-amino]-N-methyl-N-(1-pyridin-4-yl-piperidin-4-yl)-2,3-dihydro-1H-indene-5-carboxylic acid amide], the inhibition at 10 µM was determined as 67%.

For the compound `CN(C(=O)c1ccc2c(c1)C(NC(=O)c1cc(F)ccc1Cl)CC2(C)C)C1CCN(c2ccncc2)CC1` (stereo not drawn) [CC_H-222, 3-[(2-Chloro-5-fluoro-benzoyl)amino]-N,1,1-trimethyl-N-(1-pyridin-4-yl-piperidin-4-yl)-2,3-dihydro-indene-5-carboxylic acid amide], the inhibition at 10 µM stood at 110%.

For the compound `CN(C(=O)c1ccc2c(c1)C(NC(=O)c1cc(C(F)(F)F)ccc1Cl)CC2(C)C)C1CCN(c2ccncc2)CC1` (stereo not drawn) [CC_H-223, 3-[[2-Chloro-5-(trifluoromethyl)-benzoyl]amino]-N,1,1-trimethyl-N-(1-pyridin-4-yl-piperidin-4-yl)-2,3-dihydro-indene-5-carboxylic acid amide], the inhibition at 10 µM was determined as 109%.

As for `Cc1ccc(F)c(C(=O)NC2CC(C)(C)c3ccc(C(=O)N(C)C4CCN(c5ccncc5)CC4)cc32)c1Cl` (stereo not drawn) [CC_H-224, 3-[(2-Chloro-6-fluoro-3-methyl-benzoyl)amino]-N,1,1-trimethyl-N-(1-pyridin-4-yl-piperidin-4-yl)-2,3-dihydro-indene-5-carboxylic acid amide], the inhibition at 10 µM was determined as 110%.

Turning to `CN(C(=O)c1ccc2c(c1)C(NC(=O)c1c(Cl)cccc1C(F)(F)F)CC2(C)C)C1CCN(c2ccncc2)CC1` (stereo not drawn) [CC_H-225, 3-[[2-Chloro-6-(trifluoromethyl)-benzoyl]amino]-N,1,1-trimethyl-N-(1-pyridin-4-yl-piperidin-4-yl)-2,3-dihydro-indene-5-carboxylic acid amide], the inhibition at 10 µM stood at 112%.

With `CN(C(=O)c1ccc2c(c1)C(NC(=O)C1CC1)CC2(C)C)C1CCN(c2ccncc2)CC1` (stereo not drawn) [CC_H-226, 3-(Cyclopropanecarbonylamino)-N,1,1-trimethyl-N-(1-pyridin-4-yl-piperidin-4-yl)-2,3-dihydro-indene-5-carboxylic acid amide], the inhibition at 10 µM amounted to 99%.

With `CN(C(=O)c1ccc2c(c1)C(NC(=O)CC(C)(C)C)CC2(C)C)C1CCN(c2ccncc2)CC1` (stereo not drawn) [CC_H-227, 3-(3,3-Dimethyl-butanoylamino)-N,1,1-trimethyl-N-(1-pyridin-4-yl-piperidin-4-yl)-2,3-dihydro-indene-5-carboxylic acid amide], the inhibition at 10 µM amounted to 112%.

In the case of `COCC(=O)NC1CC(C)(C)c2ccc(C(=O)N(C)C3CCN(c4ccncc4)CC3)cc21` (stereo not drawn) [CC_H-228, 3-[(2-Methoxy-acetyl)amino]-N,1,1-trimethyl-N-(1-pyridin-4-yl-piperidin-4-yl)-2,3-dihydro-indene-5-carboxylic acid amide], the inhibition at 10 µM was determined as 107%.

Consider `CC(=O)NC1CC(C)(C)c2ccc(C(=O)N(C)C3CCN(c4ccncc4)CC3)cc21` (stereo not drawn) [CC_H-229, 3-Acetylamino-N,1,1-trimethyl-N-(1-pyridin-4-yl-piperidin-4-yl)-2,3-dihydro-indene-5-carboxylic acid amide], for which the inhibition at 10 µM was determined as 104%.

Turning to `Cc1cccc(Cl)c1S(=O)(=O)NC1CC(C)(C)c2ccc(C(=O)N(C)C3CCN(c4ccncc4)CC3)cc21` (stereo not drawn) [CC_H-230, 3-[[(2-Chloro-6-methyl-phenyl)sulfonyl]amino]-N,1,1-trimethyl-N-(1-pyridin-4-yl-piperidin-4-yl)-2,3-dihydro-indene-5-carboxylic acid amide], the inhibition at 10 µM worked out at 110%.

Regarding `CN(C(=O)c1ccc2c(c1)C(NC(=O)c1cccc(C(F)(F)F)c1Cl)CC2(C)C)C1CCN(c2ccncc2)CC1` (stereo not drawn) [CC_H-231, 3-[[2-Chloro-3-(trifluoromethyl)-benzoyl]amino]-N,1,1-trimethyl-N-(1-pyridin-4-yl-piperidin-4-yl)-2,3-dihydro-indene-5-carboxylic acid amide], the inhibition at 10 µM stood at 111%.

Turning to `CN(C(=O)c1ccc2c(c1)C(NC(=O)Nc1ccccc1Cl)CC2(C)C)C1CCN(c2ccncc2)CC1` (stereo not drawn) [CC_H-232, 3-[[(2-Chlorophenyl)-carbamoyl]amino]-N,1,1-trimethyl-N-(1-pyridin-4-yl-piperidin-4-yl)-2,3-dihydro-indene-5-carboxylic acid amide], the inhibition at 10 µM turned out to be 96%.

On to `CN(C(=O)c1ccc2c(c1)C(NC(=O)Nc1cccc(Cl)c1)CC2(C)C)C1CCN(c2ccncc2)CC1` (stereo not drawn) [CC_H-233, 3-[[(3-Chlorophenyl)-carbamoyl]amino]-N,1,1-trimethyl-N-(1-pyridin-4-yl-piperidin-4-yl)-2,3-dihydro-indene-5-carboxylic acid amide], for which the inhibition at 10 µM was found to be 63%.

As to `CN(C(=O)c1ccc2c(c1)C(NC(=O)Nc1c(Cl)cccc1Cl)CC2(C)C)C1CCN(c2ccncc2)CC1` (stereo not drawn) [CC_H-234, 3-[[(2,6-Dichloro-phenyl)-carbamoyl]amino]-N,1,1-trimethyl-N-(1-pyridin-4-yl-piperidin-4-yl)-2,3-dihydro-indene-5-carboxylic acid amide], the inhibition at 10 µM was determined as 108%.

For the compound `CN(C(=O)c1ccc2c(c1)C(NC(=O)Nc1cccc(Cl)c1Cl)CC2(C)C)C1CCN(c2ccncc2)CC1` (stereo not drawn) [CC_H-235, 3-[[(2,3-Dichloro-phenyl)-carbamoyl]amino]-N,1,1-trimethyl-N-(1-pyridin-4-yl-piperidin-4-yl)-2,3-dihydro-indene-5-carboxylic acid amide], the inhibition at 10 µM amounted to 65%.

Consider `CN(C(=O)c1ccc2c(c1)C(NC(=O)Nc1cc(Cl)ccc1Cl)CC2(C)C)C1CCN(c2ccncc2)CC1` (stereo not drawn) [CC_H-236, 3-[[(2,5-Dichloro-phenyl)-carbamoyl]amino]-N,1,1-trimethyl-N-(1-pyridin-4-yl-piperidin-4-yl)-2,3-dihydro-indene-5-carboxylic acid amide], for which the inhibition at 10 µM amounted to 52%.

With `CN(C(=O)c1ccc2c(c1)C(NC(=O)Nc1ccc(F)c(Cl)c1)CC2(C)C)C1CCN(c2ccncc2)CC1` (stereo not drawn) [CC_H-242, 3-[[(3-Chloro-4-fluoro-phenyl)-carbamoyl]amino]-N,1,1-trimethyl-N-(1-pyridin-4-yl-piperidin-4-yl)-2,3-dihydro-indene-5-carboxylic acid amide], the inhibition at 10 µM was found to be 52%.
